Reference: patent US9682994B2, “Inhibitors of retroviral replication” (The Scripps Research Institute, priority 2011, dated 2017)
Entries after “also recorded” stand apart in the source; their conditions may differ.

Tests used:
HIV-1 pNL4-3 [1] = test: Viral mRNA expression after acute infection of HeLa-CD4 cells (RT-qPCR); assay type: cell-based
From the text: FIG. 1E: Analysis of viral mRNA expression. […] First-strand cDNA was synthesized with random primers and target DNA was quantified by qPCR using primers recognizing the env and LTR regions. Results were normalized as copies of viral mRNA per copy of GAPDH mRNA. […] RNA samples not reverse transcribed were used as negative control. Error bars represent standard deviations.
Total RNA extracted four days after acute infection with pNL4-3 (MOI>>1) in the presence of drugs. First-strand cDNA was synthesized with random primers, and quantified by qPCR using primers recognizing the env and LTR regions. Results were normalized as copies of viral mRNA per copy of GAPDH mRNA. The arbitrary value of 1 was assigned to the DMSO control. RNA samples that were not reverse transcribed were used as negative control. Error bars represent standard deviation.
First-strand cDNA from RNA for qPCR was prepared using […]™ first-strand cDNA kit (Invitrogen), following the manufacturer's instructions, using approximately 5 μg of RNA as starting material and random hexamers as first-strand primers. Quantitative PCR was performed with an aliquot of cDNA as template, using […]® 480 SYBR Green I Master (Roche) in a 20 μL reaction according to the manufacturer's instructions. […] The primers used were as follows: […]
PIs show low efficacy in this short 48 h assay as they act only upon spreading from the initial infection. […] The results were similar when viral production was determined by RT-PCR of viral RNA in HeLa-CD4 cells infected and treated for four days with one compound from each class of inhibitors (FIG. 5E).

HIV-1 pNL4-3 [2] = test: Viral RNA in chronically infected CEM SS cells; assay type: cell-based; conditions: 7 days treatment
Method: CEM SS cells chronically infected with pNL4-3 were treated with the indicated compounds for 7 days. Quantification of viral RNA was performed as in FIG. 1E.
Such an early time point rules out de novo infections. […] This conclusion was further supported by the fact that treatment of cells that were chronically infected, and therefore continuously shedding the virus (without incurring new infections, due to down-regulation of CD4 from the cell surface), reduced virus production to undetectable levels (FIG. 1F). […] Results were similar when viral release from cells treated for 60 days were measured by p24 enzyme-linked immunosorbent assay (ELISA) (FIG. 1G).

[3] = test system: Tat transactivation of the HIV-1 LTR; test: Tat transactivation assay, HeLa-CD4-LTR-Luc cells; assay type: cell-based
Method: Chloroquine 100 μM was added to increase Tat uptake was added to all points except untreated wells. Luciferase activity was measured 24 h later using the Luciferase Assay System (Promega). Luciferase activity per protein concentration of each sample is shown as relative light units (RLU). HI: Heat Inactivated.
FIG. 2B: HeLa-LTR-Luc cells were transfected with 2 μg of a construct expressing Tat-flag driven by the thymidine kinase (TK) promoter. […] Forty hours later RLU determined as in FIG. 2A.
Luciferase activity measured and results adjusted per protein concentration of each sample, relative light units (RLU).
PL11 cells were plated at 1×10^5 cells per well in a 6 well plate. The following day recombinant Tat protein (AIDS Research and Reference Reagent Program, Cat No. 11882) at 5 μg/ml and/or Cortistatin A at increasing concentrations were added to the cells, in culture media without serum and in the presence of 100 μM of chloroquine (increases Tat uptake). Five hours later, serum was added at 5% to the culture media. Forty hours later cells were lysed with 1× Lysis Buffer and luciferase activity was measured as before. Protein concentration was determined by Bradford assay. Results corresponding to the adjustment of the luciferase activity per protein concentration of each sample are shown as RLU. […]

CDK11 = CDK11 (Homo sapiens, UniProt P21127); test: In vitro CDK11 kinase assay with 9G8 as substrate; assay type: biochemical
Sequence of CDK11 (P21127 whole entry): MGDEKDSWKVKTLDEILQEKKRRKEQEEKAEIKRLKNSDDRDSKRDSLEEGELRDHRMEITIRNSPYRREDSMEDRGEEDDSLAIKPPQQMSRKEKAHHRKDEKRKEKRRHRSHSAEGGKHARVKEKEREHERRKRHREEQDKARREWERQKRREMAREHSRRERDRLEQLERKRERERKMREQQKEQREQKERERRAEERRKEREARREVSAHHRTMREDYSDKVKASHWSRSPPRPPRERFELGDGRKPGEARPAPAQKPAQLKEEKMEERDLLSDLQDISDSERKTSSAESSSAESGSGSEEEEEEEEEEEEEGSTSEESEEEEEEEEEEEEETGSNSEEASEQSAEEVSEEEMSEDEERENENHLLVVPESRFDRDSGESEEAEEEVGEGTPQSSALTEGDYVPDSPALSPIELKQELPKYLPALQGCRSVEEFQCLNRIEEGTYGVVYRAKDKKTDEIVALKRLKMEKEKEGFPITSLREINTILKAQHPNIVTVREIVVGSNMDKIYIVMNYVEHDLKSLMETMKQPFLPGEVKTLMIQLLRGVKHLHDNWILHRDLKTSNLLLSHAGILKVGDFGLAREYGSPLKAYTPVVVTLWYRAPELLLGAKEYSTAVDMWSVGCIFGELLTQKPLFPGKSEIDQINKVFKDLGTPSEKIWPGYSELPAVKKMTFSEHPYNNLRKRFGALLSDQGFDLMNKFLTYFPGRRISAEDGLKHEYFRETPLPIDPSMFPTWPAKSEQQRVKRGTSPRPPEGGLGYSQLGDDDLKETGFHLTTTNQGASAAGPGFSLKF
Method: To the mixture, 100 μM of ATP and 5 μCi of γ-^32P-ATP (3000 Ci/mmol 10 mCi/ml) were added to a final volume of 30 μl in kinase buffer. Following 30 min at 30° C., the reaction was terminated by addition of 6 μl of 6× SDS loading buffer. After boiling for 10 min, proteins were separated by SDS-PAGE. The gel was dried and visualized by autoradiography.

HIV = test: p24 production from CD4+ T cells of viremic HIV-infected subjects; assay type: cell-based, human; conditions: 100 nM dCA added to ARVs
Method: Viral production was measured in the supernatant by a sensitive in-house ELISA for capsid p24 and normalized to the negative control (Mock). Statistical significance was assessed by a paired t-test.
All patients provided written informed consent, according to the guidelines of the ethics committee of the Oregon Health and Science University. […] Viral production was measured in the supernatant by a sensitive in-house ELISA specific for the viral capsid protein, p24. […] Viral production was measured by quantification of viral particle-associated RNA by ultra-sensitive two-step quantitative real-time reverse transcription-PCR (RT-qPCR). Briefly, viral particles in the cell culture supernatant were pelleted by centrifugation (60 min, 25000 g at 4° C.). To generate the standard curve, a sample of LAI-HIV with known titer was pelleted in the same run. After centrifugation, viral RNA was extracted with the QIAamp viral RNA extraction kit (Qiagen) according to the manufacturer's instructions.
Cells were grown in IL-2 to increase viability.

[4] = Hepatic microsomal stability, human; assay type: in vitro ADME; conditions: 1 μM, 0.2-1 mg/ml microsomes, NADPH 1 mM
From the text: In vitro studies compared murine and human hepatic microsomes (150 donor mixed male/female pool).

CN(C)[C@H]1C[C@@]23CC[C@@]4(O2)C(=CC[C@]2(C)C(c5ccc6ccncc6c5)=CC[C@H]24)C=C3[C@@H](O)[C@@H]1O [dCA, didehydro-Cortistatin A]
maximum inhibition, viral RNA (HIV-1 pNL4-3 [1]; HeLa-CD4 infected and treated for four days): around 80% | EC50 (HIV-1 pNL4-3 [1]; HeLa-CD4 infected and treated for four days, read-out: EC50, viral production by RT-PCR of viral RNA): < 0.1 nM | total amount of viral RNA in infected cells (HIV-1 pNL4-3 [1]; acute infection, increasing concentrations): drastic dose-dependent reduction | viral RNA levels in chronically infected CEM SS (HIV-1 pNL4-3 [2]): reduced viral RNA levels | basal transcription from the LTR promoter ([3]; absence of Tat, or PMA activation): did not alter basal transcription | Tat-mediated transcriptional activation of LTR-Luc ([3]; recombinant Tat protein added): Transcriptional repression | in vitro CDK11 kinase activity (CDK11): unable to block; also recorded: did not inhibit | further decrease of p24 production on addition to the ARVs (HIV): 20% | T1/2 hepatic microsomes, Human [4]: 1 h
